The values that follow come from patent US20250223281A1, “ANTIDIABETIC COMPOUNDS AND COMPOSITIONS” (REZUBIO PHARMACEUTICALS CO., LTD, priority 2022, published 2025).

The test has as its target T1, GPR40 (Homo sapiens, UniProt O14842).
T1 construct: expressed in transfected cells; host or cells: HEK293 cells stably expressing GPR40 (Hygromycin selection)
Nature of the test: IP1 accumulation assay in HEK293 cells stably expressing GPR40. Type of test: cell-based. Put shortly:
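HEK293 cells stably expressing human GPR40 were incubated with compounds (10-point, 3-fold dilution series) for 2 h at 37 °C, then IP1 was detected by HTRF (665/615 nm ratio). Effect was normalised to DMSO blank and AMG-1638 as 100%, and EC50 was derived from dose curves.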

[1] abbreviates: IP1 accumulation, HEK293 cells stably expressing GPR40, 2 hours at 37° C., % effect relative to AMG-1638, table of Biological Example 1.
Setting [2] is: Table A-8 (additional examples), obtained by methods of Biological Example 1.

The structures appear in SMILES notation.

T1 sequence (O14842 whole entry): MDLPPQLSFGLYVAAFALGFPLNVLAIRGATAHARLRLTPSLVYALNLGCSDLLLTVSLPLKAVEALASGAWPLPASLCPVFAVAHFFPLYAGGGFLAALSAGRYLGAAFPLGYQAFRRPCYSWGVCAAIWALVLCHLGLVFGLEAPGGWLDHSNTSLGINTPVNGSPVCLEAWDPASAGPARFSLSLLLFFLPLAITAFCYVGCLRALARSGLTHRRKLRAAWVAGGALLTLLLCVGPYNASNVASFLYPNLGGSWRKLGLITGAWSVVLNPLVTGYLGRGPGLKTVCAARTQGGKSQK

Broadly, the EC50 is the midpoint of the concentration-response curve. Higher therefore signals weaker potency. For the compound `COc1ccc(F)c(-c2ccc(COc3cccc([C@@H](CC(=O)O)C4CC4)c3)cc2OC(C)(C)Cn2cc(CCCCCCCCCCCCCCC(=O)NCC[N+](C)(CCC(=O)NCCN)CCC(=O)NCCN)nn2)c1` [Example 139], under setting [1], it took 8.54 nM to reach a half-maximal effect (EC50).

With `COc1ccc(F)c(-c2ccc(COc3cccc([C@@H](CC(=O)O)C4CC4)c3)cc2OC(C)(C)Cn2cc(CCCCCCCCC(=O)NCC[N+](C)(CCC(=O)NCCN)CCC(=O)NCCN)nn2)c1` [Example 140], the EC50 under setting [1] was > 10000 nM.

Under setting [1], `COc1ccc(F)c(-c2ccc(COc3cccc([C@@H](CC(=O)O)C4CC4)c3)cc2OC(C)(C)Cn2cc(CCCCCCCCCCC(=O)NCC[N+](C)(CCC(=O)NCCN)CCC(=O)NCCN)nn2)c1` [Example 141] gave an EC50 of 1650 nM.

Consider `COc1ccc(F)c(-c2ccc(COc3cccc([C@@H](CC(=O)O)C4CC4)c3)cc2OC(C)(C)Cn2cc(CCCCCCCCCCCCCC(=O)NCC[N+](C)(CCC(=O)NCCN)CCC(=O)NCCN)nn2)c1` [Example 142], for which the EC50 under setting [1] stood at 30.7 nM.

In the case of `COc1ccc(F)c(-c2ccc(COc3cccc([C@@H](CC(=O)O)C4CC4)c3)cc2C(C)(C)c2cn(CCCCCCCCCC(=O)NCC[N+](C)(CCC(=O)NCCN)CCC(=O)NCCN)nn2)c1` [Example 143], the EC50 under setting [1] is > 10000 nM.

As for `COc1ccc(F)c(-c2ccc(COc3cccc([C@@H](CC(=O)O)C4CC4)c3)cc2CC(C)(C)Cn2cc(CCCCCCCCC(=O)NCC[N+](C)(CCC(=O)NCCN)CCC(=O)NCCN)nn2)c1` [Example 144], the EC50 is 5170 nM under setting [1] and 5170 nM (Tables A-1a to A-7b (structure-property relationship), obtained by methods of Biological Example 1).

Under setting [1], `C[C@H](C(=O)O)[C@H](c1ccc2c(c1)O[C@@H](C1CCN(Cc3cc(-n4cc(CCCCCCCCCCCCCCCCCC(=O)NCCCN(C)CC(=O)NCCN)nn4)ccc3OC(F)(F)F)CC1)CC2)C1CC1` [Example 145] registered an EC50 of 0.19 nM.

For `C[C@H](C(=O)O)[C@H](c1ccc2c(c1)O[C@@H](C1CCN(Cc3cc(-n4cc(CCCCCCCCCCCCCCCCCC(=O)NCCC[N+](C)(C)CC(=O)NCCN)nn4)ccc3OC(F)(F)F)CC1)CC2)C1CC1` [Example 146], under setting [1], a half-maximal effect (EC50) was put at 0.12 nM.

`COc1ccc(F)c(-c2ccc(COc3cccc([C@@H](CC(=O)O)C4CC4)c3)cc2CC(C)(C)Cn2cc(CCCCCCCCCCCCCCCCCC(=O)NCCCN(C)CC(=O)NCCN)nn2)c1` [Example 147] returned an EC50 under setting [1] of 0.62 nM. This EC50 lies about 5.2-fold higher than the previous one.

As to `COc1ccc(F)c(-c2ccc(COc3cccc([C@@H](CC(=O)O)C4CC4)c3)cc2CC(C)(C)Cn2cc(CCCCCCCCCCCCCCCCCC(=O)NCCC[N+](C)(C)CC(=O)NCCN)nn2)c1` [Example 148], under setting [1], the concentration for a half-maximal effect (EC50) turned out to be 0.43 nM. This EC50 and that of the compound before are within 1.5-fold of each other.

Compound `COc1ccc(C(=O)N(CC(C)(C)CCCCCCn2cc(CCCCCCCCCCCCCCCCCC(=O)NCCCN(C)CC(=O)NCCN)nn2)c2cccc(C)n2)c(N2CCC(COc3cc([C@@H](CC(=O)O)C4CC4)ccn3)CC2)c1` [Example 149] registered an EC50 under setting [1] of 0.09 nM.

`COc1ccc(C(=O)N(CC(C)(C)CCn2cc(CCCCCCCCCCCCCCCCCC(=O)NCCCN(C)CC(=O)NCCN)nn2)c2cccc(C)n2)c(N2CCC(COc3cc([C@@H](CC(=O)O)C4CC4)ccn3)CC2)c1` [Example 150] returned an EC50 under setting [1] of 0.07 nM.

The compound `COc1ccc(C(=O)N(CC(C)(C)CCn2cc(CCCCCCCCCCCCCCCCCC(=O)NCCC[N+](C)(C)CC(=O)NCCN)nn2)c2cccc(C)n2)c(N2CCC(COc3cc([C@@H](CC(=O)O)C4CC4)ccn3)CC2)c1` [Example 151] showed an EC50 under setting [1] of 0.05 nM.

In the case of `COc1ccc(F)c(-c2ccc(COc3cccc([C@@H](CC(=O)O)C4CC4)c3)cc2CC(C)(C)Cn2cc(CCCCCCCCCCCCCC(=O)NCCCN(CC(=O)NCCN)CC(=O)NCCN)nn2)c1` [Example 152], a half-maximal effect under setting [1] (EC50) was put at 34.4 nM.

Consider `COc1ccc(F)c(-c2ccc(COc3cccc([C@@H](CC(=O)O)C4CC4)c3)cc2CC(C)(C)Cn2cc(CCCCCCCCCCCCCCCC(=O)NCCCN(CC(=O)NCCN)CC(=O)NCCN)nn2)c1` [Example 153], for which a half-maximal effect under setting [1] (EC50) was put at 6.64 nM.

`COc1ccc(F)c(-c2ccc(COc3cccc([C@@H](CC(=O)O)C4CC4)c3)cc2CC(C)(C)Cn2cc(CCCCCCCCCCCCCCCCCC(=O)NCCCN(CC(=O)NCCN)CC(=O)NCCN)nn2)c1` [Example 154] registered an EC50 under setting [1] of 1.04 nM. This EC50 lies about 6.4-fold lower than the previous one.

As to `COc1ccc(F)c(-c2ccc(COc3cccc([C@@H](CC(=O)O)C4CC4)c3)cc2CC(C)(C)Cn2cc(CCCCCCCCCCCCCC(=O)NCCC[N+](C)(CC(=O)NCCN)CC(=O)NCCN)nn2)c1` [Example 155], under setting [1], the EC50 was 18.8 nM.

Take `COc1ccc(F)c(-c2ccc(COc3cccc([C@@H](CC(=O)O)C4CC4)c3)cc2CC(C)(C)Cn2cc(CCCCCCCCCCCCCCCC(=O)NCCC[N+](C)(CC(=O)NCCN)CC(=O)NCCN)nn2)c1` [Example 156]: under setting [1], the response was half-maximal at 2.53 nM (EC50).

`COc1ccc(F)c(-c2ccc(COc3cccc([C@@H](CC(=O)O)C4CC4)c3)cc2CC(C)(C)Cn2cc(CCCCCCCCCCCCCCCCCC(=O)NCCC[N+](C)(CC(=O)NCCN)CC(=O)NCCN)nn2)c1` [Example 157] gave an EC50 under setting [1] of 0.54 nM.

In turn, `COc1ccc(F)c(-c2ccc(COc3cccc([C@@H](CC(=O)O)C4CC4)c3)cc2C(C)(C)Cn2cc(CCCCCCCCCCCCCCCCCC(=O)NCC[N+](C)(CCC(=O)NCCN)CCC(=O)NCCN)nn2)c1` [Example 158] came in with an EC50 under setting [1] of 8.97 nM.

On to `COc1ccc(C(=O)N(CC(C)(C)CCn2cc(COCCOCCOCC(=O)NCCN(CCC(=O)NCCN)CCC(=O)NCCN)nn2)c2cccc(C)n2)c(N2CCC(COc3cc([C@@H](CC(=O)O)C4CC4)ccn3)CC2)c1` [Example 159], for which the EC50 by setting is: under setting [1], > 6000 nM; under setting [2], > 6000 nM.

Regarding `COc1ccc(C(=O)N(CC(C)(C)CCn2cc(COCCOCCOCCOCCOCC(=O)NCCN(CCC(=O)NCCN)CCC(=O)NCCN)nn2)c2cccc(C)n2)c(N2CCC(COc3cc([C@@H](CC(=O)O)C4CC4)ccn3)CC2)c1` [Example 161], the EC50 stood at 2200 nM under setting [1] and 2200 nM under setting [2].

Take `COc1ccc(C(=O)N(CC(C)(C)CCn2cc(COCCOCCOCC(=O)NCC[N+](C)(CCC(=O)NCCN)CCC(=O)NCCN)nn2)c2cccc(C)n2)c(N2CCC(COc3cc([C@@H](CC(=O)O)C4CC4)ccn3)CC2)c1` [Example 162]: the EC50 was 1250 nM under setting [1] and 1250 nM under setting [2].

Turning to `COc1ccc(C(=O)N(CC(C)(C)CCn2cc(COCCOCCOCCOCC(=O)NCC[N+](C)(CCC(=O)NCCN)CCC(=O)NCCN)nn2)c2cccc(C)n2)c(N2CCC(COc3cc(C(CC(=O)O)C4CC4)ccn3)CC2)c1` (centres unmarked) [Example 163], the concentration giving a half-maximal response (EC50) under setting [1] was > 5000 nM and the concentration giving a half-maximal response (EC50) under setting [2] was > 5000 nM.

In turn, `COc1ccc(C(=O)N(CC(C)(C)CCn2cc(COCCOCCOCCOCCOCC(=O)NCC[N+](C)(CCC(=O)NCCN)CCC(=O)NCCN)nn2)c2cccc(C)n2)c(N2CCC(COc3cc([C@@H](CC(=O)O)C4CC4)ccn3)CC2)c1` [Example 164] returned an EC50 under setting [1] of 1330 nM and an EC50 under setting [2] of 1330 nM.

Turning to `COc1ccc(F)c(-c2ccc(COc3cccc([C@@H](CC(=O)O)C4CC4)c3)cc2CC(C)(C)Cn2cc(COCCOCCOCC(=O)NCCN(CCC(=O)NCCN)CCC(=O)NCCN)nn2)c1` [Example 165], the EC50 is, setting by setting: under setting [1], > 10000 nM; under setting [2], > 10000 nM.

Regarding `COc1ccc(F)c(-c2ccc(COc3cccc([C@@H](CC(=O)O)C4CC4)c3)cc2CC(C)(C)Cn2cc(COCCOCCOCCOCC(=O)NCCN(CCC(=O)NCCN)CCC(=O)NCCN)nn2)c1` [Example 166], the concentration for a half-maximal effect (EC50) is > 10000 nM under setting [1] and > 10000 nM under setting [2].

In the case of `COc1ccc(F)c(-c2ccc(COc3cccc([C@@H](CC(=O)O)C4CC4)c3)cc2CC(C)(C)Cn2cc(COCCOCCOCCOCCOCC(=O)NCCN(CCC(=O)NCCN)CCC(=O)NCCN)nn2)c1` [Example 167], the EC50 is > 10000 nM under setting [1] and > 10000 nM under setting [2].

On to `COc1ccc(F)c(-c2ccc(COc3cccc([C@@H](CC(=O)O)C4CC4)c3)cc2CC(C)(C)Cn2cc(COCCOCCOCC(=O)NCC[N+](C)(CCC(=O)NCCN)CCC(=O)NCCN)nn2)c1` [Example 168], for which the EC50 by setting is: under setting [1], > 10000 nM; under setting [2], > 10000 nM.

For `COc1ccc(F)c(-c2ccc(COc3cccc([C@@H](CC(=O)O)C4CC4)c3)cc2CC(C)(C)Cn2cc(COCCOCCOCCOCC(=O)NCC[N+](C)(CCC(=O)NCCN)CCC(=O)NCCN)nn2)c1` [Example 169], the EC50 is > 10000 nM under setting [1] and > 10000 nM under setting [2].

On to `COc1ccc(F)c(-c2ccc(COc3cccc([C@@H](CC(=O)O)C4CC4)c3)cc2CC(C)(C)Cn2cc(COCCOCCOCCOCCOCC(=O)NCC[N+](C)(CCC(=O)NCCN)CCC(=O)NCCN)nn2)c1` [Example 170], for which the EC50 was 200 nM under setting [1] and > 200 nM under setting [2].

On to `C[C@H](C(=O)O)[C@H](c1ccc2c(c1)O[C@@H](C1CCN(Cc3cc(-n4cc(COCCOCCOCC(=O)NCCN(CCC(=O)NCCN)CCC(=O)NCCN)nn4)ccc3OC(F)(F)F)CC1)CC2)C1CC1` [Example 171], for which the 50% effective concentration (EC50) by setting is: under setting [1], > 10000 nM; under setting [2], > 10000 nM.

For the compound `C[C@H](C(=O)O)[C@H](c1ccc2c(c1)O[C@@H](C1CCN(Cc3cc(-n4cc(COCCOCCOCCOCC(=O)NCCN(CCC(=O)NCCN)CCC(=O)NCCN)nn4)ccc3OC(F)(F)F)CC1)CC2)C1CC1` [Example 172], the midpoint of the response under setting [1], the EC50, lay at 5240 nM and the EC50 under setting [2] came out at 5240 nM.

`C[C@H](C(=O)O)[C@H](c1ccc2c(c1)O[C@@H](C1CCN(Cc3cc(-n4cc(COCCOCCOCCOCCOCC(=O)NCCN(CCC(=O)NCCN)CCC(=O)NCCN)nn4)ccc3OC(F)(F)F)CC1)CC2)C1CC1` [Example 173]: the EC50 is, setting by setting: under setting [1], > 10000 nM; under setting [2], > 10000 nM.

For the compound `C[C@H](C(=O)O)[C@H](c1ccc2c(c1)O[C@@H](C1CCN(Cc3cc(-n4cc(COCCOCCOCC(=O)NCC[N+](C)(CCC(=O)NCCN)CCC(=O)NCCN)nn4)ccc3OC(F)(F)F)CC1)CC2)C1CC1` [Example 174], the EC50 under setting [1] is > 10000 nM and the EC50 under setting [2] was > 10000 nM.

Take `C[C@H](C(=O)O)[C@H](c1ccc2c(c1)O[C@@H](C1CCN(Cc3cc(-n4cc(COCCOCCOCCOCC(=O)NCC[N+](C)(CCC(=O)NCCN)CCC(=O)NCCN)nn4)ccc3OC(F)(F)F)CC1)CC2)C1CC1` [Example 175]: the EC50 reads like this: under setting [1], > 10000 nM; under setting [2], > 10000 nM.
